Columns and labels:
Format in all cases: binding
[1] = tested on: SARS-COV-2 RNA G4, position 353 (NsP1); assay: CD thermal melting analysis, G4 No. 1; conditions: G4 No. 1, position 353, NsP1; 15 μM RNA G4, 30 μM compound
Description: (§1) For melting, the samples were heated at 25 to 95° C. at 2° C./min with a data pitch of 0.5° C. CD melting analyses were performed with and without G4-binding compounds. The ratio of RNA: G4-binding compound was set to a molar ratio of 1:2. 15 μM RNA G4 was treated with 30 μM G4-binding compound and incubated at room temperature in a buffer comprising 10 mM Tris-HCl (pH 7.5) and 100 mM KCl for 30 minutes. Ellipticity was measured at 265 nm. Thereafter, data were normalized and plotted in OriginPro 2017 to calculate Tm values.
(§2) In addition, 15 μM RNA G4 was treated with 30 μM compound and incubated, and a CD thermal melting curve of RNA G4 (15 μM) was obtained in the presence or absence of the G4-binding compound. Furthermore, the effect of G4-binding compounds on the stability of SARS-COV-2 G4 was confirmed by measuring the difference in melting temperature (ΔTm). The results are illustrated in FIGS. 6A and 6B.

[2] = tested on: SARS-COV-2 RNA G4, position 644 (NsP1); assay: CD thermal melting analysis, G4 No. 2; conditions: G4 No. 2, position 644, NsP1; 15 μM RNA G4, 30 μM compound
Description: as §1, §2

[3] = tested on: SARS-COV-2 RNA G4, position 1463 (NsP2); assay: CD thermal melting analysis, G4 No. 3; conditions: G4 No. 3, position 1463, NsP2; 15 μM RNA G4, 30 μM compound
Description: as §1, §2

[4] = tested on: SARS-COV-2 RNA G4, position 2714 (NsP2 + NsP3); assay: CD thermal melting analysis, G4 No. 5; conditions: G4 No. 5, position 2714, NsP2 + NsP3; 15 μM RNA G4, 30 μM compound
Description: as §1, §2

[5] = tested on: SARS-COV-2 RNA G4, position 3467 (NsP3); assay: CD thermal melting analysis, G4 No. 6; conditions: G4 No. 6, position 3467, NsP3; 15 μM RNA G4, 30 μM compound
Description: as §1, §2

[6] = tested on: SARS-COV-2 RNA G4, position 4162 (NsP3); assay: CD thermal melting analysis, G4 No. 7; conditions: G4 No. 7, position 4162, NsP3; 15 μM RNA G4, 30 μM compound
Description: as §1, §2

[7] = tested on: SARS-COV-2 RNA G4, position 4261 (NsP3); assay: CD thermal melting analysis, G4 No. 8; conditions: G4 No. 8, position 4261, NsP3; 15 μM RNA G4, 30 μM compound
Description: as §1, §2

[8] = tested on: SARS-COV-2 RNA G4, position 10261 (NsP5); assay: CD thermal melting analysis, G4 No. 10; conditions: G4 No. 10, position 10261, NsP5; 15 μM RNA G4, 30 μM compound
Description: as §1, §2

[9] = tested on: SARS-COV-2 RNA G4, position 13385 (NsP10); assay: CD thermal melting analysis, G4 No. 11; conditions: G4 No. 11, position 13385, NsP10; 15 μM RNA G4, 30 μM compound
Description: as §1, §2

[10] = tested on: SARS-COV-2 RNA G4, position 15208 (NsP12); assay: CD thermal melting analysis, G4 No. 13; conditions: G4 No. 13, position 15208, NsP12; 15 μM RNA G4, 30 μM compound
Description: as §1, §2

[11] = tested on: SARS-COV-2 RNA G4, position 15448 (NsP12); assay: CD thermal melting analysis, G4 No. 14; conditions: G4 No. 14, position 15448, NsP12; 15 μM RNA G4, 30 μM compound
Description: as §1, §2

[12] = tested on: SARS-COV-2 RNA G4, position 18296 (NsP12); assay: CD thermal melting analysis, G4 No. 15; conditions: G4 No. 15, position 18296, NsP12; 15 μM RNA G4, 30 μM compound
Description: as §1, §2

[13] = tested on: SARS-COV-2 RNA G4, position 22316 (Surface glycoprotein); assay: CD thermal melting analysis, G4 No. 16; conditions: G4 No. 16, position 22316, Surface glycoprotein; 15 μM RNA G4, 30 μM compound
Description: as §1, §2

[14] = tested on: SARS-COV-2 RNA G4, position 25197 (Surface glycoprotein); assay: CD thermal melting analysis, G4 No. 19; conditions: G4 No. 19, position 25197, Surface glycoprotein; 15 μM RNA G4, 30 μM compound
Description: as §1, §2

[15] = tested on: SARS-COV-2 RNA G4, position 26746 (Membrane protein); assay: CD thermal melting analysis, G4 No. 21; conditions: G4 No. 21, position 26746, Membrane protein; 15 μM RNA G4, 30 μM compound
Description: as §1, §2

[16] = tested on: SARS-COV-2 RNA G4, position 28903 (Nucleocapsid protein); assay: CD thermal melting analysis, G4 No. 23; conditions: G4 No. 23, position 28903, Nucleocapsid protein; 15 μM RNA G4, 30 μM compound
Description: as §1, §2

[17] = tested on: SARS-COV-2 RNA G4, position 29123 (Nucleocapsid protein); assay: CD thermal melting analysis, G4 No. 24; conditions: G4 No. 24, position 29123, Nucleocapsid protein; 15 μM RNA G4, 30 μM compound
Description: as §1, §2

[18] = tested on: SARS-COV-2 RNA G4, position 29234 (Nucleocapsid protein); assay: CD thermal melting analysis, G4 No. 25; conditions: G4 No. 25, position 29234, Nucleocapsid protein; 15 μM RNA G4, 30 μM compound
Description: as §1, §2

[19] = tested on: 25 G4s predicted for SARS-COV-2; assay: CD thermal melting analysis, comparison of ΔTm over all G4s; conditions: for effect on stability of SARS-COV-2 G4 (ΔTm), in words: 15 μM RNA G4, 30 μM compound, FIGS. 6A and 6B; for number of G4s Destabilized: of the 25 SARS-COV-2 G4s

Structure (SMILES) | Tm in ° C. with compound [1] [°C] | ΔTm [1] [°C] | Tm in ° C. with compound [2] [°C] | ΔTm [2] [°C] | Tm in ° C. with compound [3] [°C] | ΔTm [3] [°C] | Tm in ° C. with compound [4] [°C] | ΔTm [4] [°C] | Tm in ° C. with compound [5] [°C] | ΔTm [5] [°C] | Tm in ° C. with compound [6] [°C] | ΔTm [6] [°C] | Tm in ° C. with compound [7] [°C] | ΔTm [7] [°C] | Tm in ° C. with compound [8] [°C] | ΔTm [8] [°C] | Tm in ° C. with compound [9] [°C] | ΔTm [9] [°C] | Tm in ° C. with compound [10] [°C] | ΔTm [10] [°C] | other results
CN1CCC[C@H]1CCNC(=O)c1cn2c3c(c(N4CCC(c5cnccn5)C4)c(F)cc3c1=O)Oc1cc3ccccc3cc1-2 (stereo partly drawn) [CX-3543, 15-fluoro-N-[2-[(2S)-1-methylpyrrolidin-2-yl]ethyl]-18-oxo-14-(3-pyrazin-2-ylpyrrolidin-1-yl)-12-oxa-1-azapentacyclo [11.7.1.0^2,11.0^4,9.0^17,21]henicosa-2,4,6,8, 10, 13 (21), 14,16,19-nonaene-19-carboxamide] | 72.64 | 1.05 | 53.32 | 5.59 | 66.55 | 11.03 | 57.69 | −13.45 | 63.54 | −2.01 | 58.94 | 2.05 | 63.89 | 13.58 | 50.24 | 2.35 | 52.87 | 7.27 | 63.87 | 6.7 | Tm in ° C. with compound [11]: 58.58 °C; ΔTm [11]: 5.96 °C; Tm in ° C. with compound [12]: 63.64 °C; ΔTm [12]: 4.81 °C; Tm in ° C. with compound [13]: 49.56 °C; ΔTm [13]: 1.28 °C; Tm in ° C. with compound [14]: 66.57 °C; ΔTm [14]: −4.62 °C; Tm in ° C. with compound [15]: 59.29 °C; ΔTm [15]: −3.37 °C; Tm in ° C. with compound [16]: 63.45 °C; ΔTm [16]: 6.34 °C; Tm in ° C. with compound [17]: 62.59 °C; ΔTm [17]: 8.19 °C; Tm in ° C. with compound [18]: 58.52 °C; ΔTm [18]: −3.65 °C; effect on stability of SARS-COV-2 G4 (ΔTm), in words [19]: did not show any noticeable change; number of G4s Destabilized [19]: 6
NCCOc1cc(C(=O)Nc2cc(OCCN)c3ccccc3n2)nc(C(=O)Nc2cc(OCCN)c3ccccc3n2)c1 [PDS, 4-(2-aminoethoxy)-N2,N6-bis(4-(2-aminoethoxy)quinolin-2-yl)pyridine-2,6-dicarboxamide] | 87.66 | 16.07 | 70.59 | 22.86 | 60.04 | 4.52 | 86.49 | 15.35 | 88.65 | 23.1 | 56.03 | −0.86 | 79.18 | 28.87 | 60.66 | 12.77 | 63.07 | 17.47 | 60.16 | 2.99 | Tm in ° C. with compound [11]: 56.5 °C; ΔTm [11]: 3.88 °C; Tm in ° C. with compound [12]: 82.4 °C; ΔTm [12]: 23.57 °C; Tm in ° C. with compound [13]: 55.62 °C; ΔTm [13]: 7.34 °C; Tm in ° C. with compound [14]: 68.63 °C; ΔTm [14]: −2.56 °C; Tm in ° C. with compound [15]: 68.77 °C; ΔTm [15]: 6.11 °C; Tm in ° C. with compound [16]: 60.46 °C; ΔTm [16]: 3.35 °C; Tm in ° C. with compound [17]: 73.83 °C; ΔTm [17]: 19.43 °C; Tm in ° C. with compound [18]: 80.2 °C; ΔTm [18]: 18.03 °C; effect on stability of SARS-COV-2 G4 (ΔTm), in words [19]: significantly stabilized most G4s; proportion of the G4s with ΔTm>20° C. ([19]; among the 25 G4s predicted for SARS-COV-2): 36%; number of G4s Destabilized [19]: 2

— patent publication US20240390328A1, “PHARMACEUTICAL COMPOSITION CONTAINING AS ACTIVE INGREDIENT COMPOUND CONJUGATED TO G4 STRUCTURES OF CORONAVIRUSES FOR PREVENTION OR TREATMENT OF CORONAVIRUS INFECTIOUS DISEASES” (priority 2020, published 2024)
